This note sets out measurements from paper PMC6557688 (FEBS letters, 2019).

This test has as its target recombinant Nudt7 (Mus musculus, UniProt Q99P30). The test can be described thus: CoA diphosphohydrolase assay, protein curves. In kind it is biochemical. The conditions noted are these: MgCl2 or MnCl2.

Structures are written as SMILES.

recombinant Nudt7, sequence (Q99P30 whole entry): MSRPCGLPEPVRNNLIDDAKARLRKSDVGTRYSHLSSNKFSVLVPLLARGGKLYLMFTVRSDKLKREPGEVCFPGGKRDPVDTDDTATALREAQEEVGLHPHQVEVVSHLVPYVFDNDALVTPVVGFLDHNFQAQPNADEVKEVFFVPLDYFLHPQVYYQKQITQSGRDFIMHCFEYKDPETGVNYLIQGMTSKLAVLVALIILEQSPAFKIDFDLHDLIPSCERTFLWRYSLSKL

For `CC(C)(COP(=O)(O)OP(=O)(O)OC[C@H]1O[C@@H](n2cnc3c(N)ncnc32)[C@H](O)[C@@H]1OP(=O)(O)O)[C@@H](O)C(=O)NCCC(=O)NCCS` [Free CoA], the “CoA diphosphohydrolase assay, protein curves” value was “the specific activity of Nudt8 against free CoA was comparable to that of Nudt7”.
